Assay results taken from patent US20030114666A1, “Antibacterial agents” (priority 2001, published 2003).
≈ marks a conversion by molar mass, not a printed value. Like-named read-outs stand apart in the source and are kept apart here.

Legend:
[1] = tested on: S. aureus UC-76; assay: Test D cross resistance antibacterial assay (MIC); type: cell-based; conditions: wild type sensitive laboratory strain; for MIC: Staphylococcus aureus, UC76, read-out: Minimum Inhibitory Concentrations S. aureus UC-76
Method: (§1) Test D-Cross Resistance Antibacterial Assay
(§2) The compounds of the present invention were tested against an assortment of ciprofloxacin resistant E. coli and S. aureus organisms described below using standard microtitration techniques (Cohen, et al., Antimicrob. Agents Chemother., 1985;28:766; Heifetz, et al., Antimicrob. Agents Chemother., 1974;6:124). […].
S. aureus UC-76: Typical sensitive laboratory strain (Wild type).

[2] = tested on: N. gonorrhoeae 2709; assay: Test D cross resistance antibacterial assay (MIC); type: cell-based, Neisseria gonorrhoeae; conditions: for MIC fold increase N. g. 2709 (in parentheses): relative to MIC against N. g. 2637; for MIC: Neisseria gonorrhoeae, 2709, read-out: Minimum Inhibitory Concentrations N. g. 2709
Method: as §1, §2
N. gonorrhoeae 2709 (N.g. 2709): Isogenic to N. gonorrhoeae 2637 contains gyrA quinolone-resistant determining region (QRDR) mutations (S91F D95G).

[3] = tested on: S. aureus 2558; assay: Test D cross resistance antibacterial assay (MIC); type: cell-based; conditions: for MIC fold increase S. aureus 2558 (in parentheses): relative to MIC against S. aureus UC-76
Method: as §1, §2
S. aureus 2558: Isogenic to S. aureus 2554, with point mutation at position 84 of gyrA subunit.

[4] = molecular target: E. coli gyrase (Escherichia coli, UniProt P0AES4+P0AES6); assay: biochemical
Sequence of E. coli gyrase (P0AES4 whole entry, one chain of several): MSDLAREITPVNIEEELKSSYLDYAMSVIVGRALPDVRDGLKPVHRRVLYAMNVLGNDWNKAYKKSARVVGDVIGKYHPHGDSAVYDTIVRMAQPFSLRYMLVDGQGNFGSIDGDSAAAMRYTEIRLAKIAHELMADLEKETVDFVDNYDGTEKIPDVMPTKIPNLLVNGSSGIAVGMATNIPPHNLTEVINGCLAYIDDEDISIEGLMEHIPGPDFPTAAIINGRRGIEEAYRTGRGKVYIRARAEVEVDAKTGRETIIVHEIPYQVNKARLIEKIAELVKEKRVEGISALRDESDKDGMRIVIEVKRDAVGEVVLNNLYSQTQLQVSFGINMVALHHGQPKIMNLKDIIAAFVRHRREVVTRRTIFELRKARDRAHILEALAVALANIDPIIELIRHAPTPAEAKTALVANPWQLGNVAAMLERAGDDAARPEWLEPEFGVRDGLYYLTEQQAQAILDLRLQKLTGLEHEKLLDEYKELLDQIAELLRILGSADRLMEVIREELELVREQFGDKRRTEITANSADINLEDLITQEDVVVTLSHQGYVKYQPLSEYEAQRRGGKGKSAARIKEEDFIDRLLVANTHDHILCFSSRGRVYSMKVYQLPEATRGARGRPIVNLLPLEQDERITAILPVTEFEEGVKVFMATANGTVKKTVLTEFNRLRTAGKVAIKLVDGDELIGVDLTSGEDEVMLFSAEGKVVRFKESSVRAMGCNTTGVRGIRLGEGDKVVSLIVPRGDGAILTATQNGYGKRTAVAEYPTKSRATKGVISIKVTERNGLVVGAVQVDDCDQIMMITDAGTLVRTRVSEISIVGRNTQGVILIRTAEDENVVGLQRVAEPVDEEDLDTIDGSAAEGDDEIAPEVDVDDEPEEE

[5] = tested on: N. gonorrhoeae 2637; assay: Test D cross resistance antibacterial assay (MIC); type: cell-based, Neisseria gonorrhoeae; conditions: parent strain, derivative of MS11; for MIC: Neisseria gonorrhoeae, 2637, read-out: Minimum Inhibitory Concentrations N. g. 2637
Method: as §1, §2
N. gonorrhoeae 2637 (N.g. 2637) is a derivative of Neisseria gonorrhoeae MS11 containing a TAC-LAC recA to allow for control of homologous recombination [Tonjum T. et al. Molecular Microbiology 1995, 16, 451-64].

[6] = tested on: S. aureus 2552; assay: Test D cross resistance antibacterial assay (MIC); type: cell-based; conditions: for MIC fold increase S. aureus 2552 (in parentheses): relative to MIC against S. aureus UC-76; for MIC: Staphylococcus aureus, 2552, read-out: Minimum Inhibitory Concentrations S. aureus 2552
Method: as §1, §2

[7] = tested on: S. aureus 2554; assay: Test D cross resistance antibacterial assay (MIC); type: cell-based; conditions: for MIC fold increase S. aureus 2554 (in parentheses): relative to MIC against S. aureus UC-76
Method: as §1, §2
S. aureus 2554: Isogenic to S. aureus 2552, with point mutation at position 80 of grlA subunit.

[8] = tested on: E. coli Tol C; assay: Test A antibacterial assay, standard microtitration (MIC); type: cell-based; conditions: for MIC: Escherichia coli, read-out: Minimum Inhibitory Concentrations E. coli Tol C
Method: (§3) Test A-Antibacterial Assay
(§4) The compounds of the present invention were tested against an assortment of Gram-negative and Gram-positive organisms using standard microtitration techniques (Cohen, et al., Antimicrob. Agents Chemother., 1985;28:766; Heifetz, et al., Antimicrob. Agents Chemother:, 1974;6:124). […]

[9] = tested on: S. pyogenes C203; assay: as above; type: cell-based; conditions: Gram positive, S. pyogenes C203; for MIC: Streptococcus pyogenes, read-out: Minimum Inhibitory Concentrations S. pyogenes C203
Method: as §3, §4

[10] = tested on: S. aureus 29213; assay: as above; type: cell-based; conditions: Gram positive, S. aureus 29213; for MIC: Staphylococcus aureus, read-out: Minimum Inhibitory Concentrations S. aureus 29213
Method: as §3, §4

[11] = tested on: E. faecalis RB1; assay: as above; type: cell-based; conditions: Gram positive, E. faecalis RB1; for MIC: Enterococcus faecalis, read-out: Minimum Inhibitory Concentrations E. faecalis RB1
Method: as §3, §4

[12] = tested on: E. coli B90; assay: as above; type: cell-based; conditions: Gram negative, E. coli B90; for MIC: Escherichia coli, read-out: Minimum Inhibitory Concentrations E. coli B90
Method: as §3, §4

[13] = tested on: E. coli MC 4100; assay: as above; type: cell-based; conditions: Gram negative, E. coli MC 4100; for MIC: Escherichia coli, MC4100, read-out: Minimum Inhibitory Concentrations E. coli MC 4100
Method: as §3, §4

[14] = tested on: N. gonorrhoeae 2693; assay: Test D cross resistance antibacterial assay (MIC); type: cell-based, Neisseria gonorrhoeae; conditions: for MIC fold increase N. g. 2693 (in parentheses): relative to MIC against N. g. 2637
Method: as §1, §2
N. gonorrhoeae 2693 (N.g. 2693): Isogenic to N. gonorrhoeae 2709 containing parC QRDR mutations [P88S and E91K].

[15] = tested on: S. pyogenes; assay: Test C in vivo activity, median protective dose in mice given lethal systemic infections; conditions: PO, lethal systemic infection with S. pyogenes
[16] = Test E pharmacokinetic behavior in monkeys; type: in vivo, Male Cynomologous Monkeys; conditions: male, plasma; Monkey; 5 mg/kg IV infusion over 15 minutes
Method: (§5) Test E-Pharmacokinetic Behavior or Quinazolinediones vs. 3-Aminoquinazolinediones
(§6) The compounds of the present invention were tested for pharmacokinetic behavior against the structurally related 3-aminoquinazolinediones in rats, dogs and monkeys. The representative result of the evaluation for compound 4b is shown in Table 6 compared to a structurally similar 3-aminoquinazolinedione.
Male Cynomologous Monkeys were dosed with compound dissolved in D5W at 5 mg/kg IV Infusion over 15 minutes. Blood samples were collected at 0, 0.167, 0.25, 0.33, 0.5, 1, 2, 4, 6, 8, 12 and 24 hours post dose.
(§7) Plasma from all samples were harvested following centrifugaltion and stored frozen until plasma concentrations were determined using liquid chromatography/mass spectroscopy methods. The concentration/time profile for each compound in each animal species was analyzed using non-compartmental pharmacokinetic analysis approach. In the table, clearance is defined as the volume of fluid cleared of drug from the body per unit of time. Clearance is a quantitative assessment of drug elimination. Drug elimination is the irreversible removal of drug from the body by all routes of elimination.

[17] = Test E pharmacokinetic behavior in rats; type: in vivo; conditions: male, Wistar, plasma; Rat; 1 mg/kg IV infusion in D5W over 5 minutes
Method: as §5, §6
In this study, compounds were administered to male Wistar rats and were dosed at 1 mg/kgIV infusion in D5W over 5 minutes. Blood samples were drawn at 0, 0.083, 0.167, 0.25, 0.5, 1, 2, 4, 6, 8, 12, and 24 hours post dose.
as §7

[18] = Test E pharmacokinetic behavior in dogs; type: in vivo; conditions: male, beagle, plasma; Dog; 5 mg/kg IV infusion over 15 minutes
Method: as §5, §6
Male Beagle Dogs were dosed with compound dissolved in D5W at 5 mg/kg IV Infusion over 15 minutes. Blood samples will be collected at 0, 0.167, 0.25, 0.33, 0.5, 1, 2, 4, 6, 8, 12 and 24 hours post dose.
as §7

[19] = supercoiling of relaxed pBR322, 30 minutes at 37° C.

Row | Compound | MIC fold increase N. g. 2709 (in parentheses) [2] | MIC fold increase S. aureus 2558 (in parentheses) [3] | MIC fold increase S. aureus 2552 (in parentheses) [6] | MIC fold increase S. aureus 2554 (in parentheses) [7] | MIC fold increase N. g. 2693 (in parentheses) [14] | MIC [1] | MIC [2] | PD50 [15] | MIC [5] | MIC ([6]; upregulated norA pump) | MIC [8] | MIC [9] | MIC [10] | MIC [11] | MIC [12] | MIC [13] | IC50 [4, 19] | clearance [16] | half-life [16] | clearance [17] | other results
1 | 7-(3-[1-Amino-1-(2-fluorophenyl)methyl]pyrrolidin-1-yl}-1-cyclopropyl-6-fluoro-6-methyl-1H-quinazolinedione Hydrochloride [Example 7j] | (4x) | (1x) | (1x) | (1x) | (8x) | – | – | – | – | – | – | – | – | – | – | – | – | – | – | – | Minimum Inhibitory Concentrations S. aureus UC-76 [1]: 0.06 µg/mL; Minimum Inhibitory Concentrations N. g. 2709 ([2]; gyrA QRDR mutations (S91F D95G)): 0.5 µg/mL; Minimum Inhibitory Concentrations S. aureus 2558 ([3]; norA, grlA plus point mutation at position 84 of gyrA): 0.06 µg/mL; IC50 [4]: 0.8 µM; Minimum Inhibitory Concentrations N. g. 2637 [5]: 0.13 µg/mL; Minimum Inhibitory Concentrations S. aureus 2552 ([6]; upregulated norA pump): 0.06 µg/mL; Minimum Inhibitory Concentrations S. aureus 2554 ([7]; norA plus point mutation at position 80 of grlA): 0.06 µg/mL; Minimum Inhibitory Concentrations E. coli Tol C ([8]; Gram negative, E. coli Tol C): 0.06 µg/mL; Minimum Inhibitory Concentrations S. pyogenes C203 [9]: 0.03 µg/mL; Minimum Inhibitory Concentrations S. aureus 29213 [10]: 0.13 µg/mL; Minimum Inhibitory Concentrations E. faecalis RB1 [11]: 0.25 µg/mL; Minimum Inhibitory Concentrations E. coli B90 [12]: 0.25 µg/mL; Minimum Inhibitory Concentrations E. coli MC 4100 [13]: 8.0 µg/mL; Minimum Inhibitory Concentrations N. g. 2693 ([14]; gyrA plus parC QRDR mutations [P88S and E91K]): 1.0 µg/mL
2 | O=C(O)c1cn(C2CC2)c2cc(N3CCNCC3)c(F)cc2c1=O [Ciprofloxacin, ciprofloxacin, reference compound] | (30x) | (123x) | (15x) | (15x) | (1000x) | 0.13 µg/mL (≈ 0.392 µM) | 0.06 µg/mL (≈ 0.181 µM) | >100.0 mg/kg | 0.002 µg/mL | 2 µg/mL (≈ 6.04 µM) | < 0.01 µg/mL | 0.5 µg/mL (≈ 1.51 µM) | 0.5 µg/mL (≈ 1.51 µM) | 0.5 µg/mL (≈ 1.51 µM) | < 0.01 µg/mL | < 0.02 µg/mL | – | – | – | – | –
3 | CN[C@@H](C)[C@@H]1CCN(c2c(F)cc3c(=O)[nH]c(=O)n(C4CC4)c3c2C)C1 [Example 2, 1-Cyclopropyl-6-fluoro-8-methyl-7-[(R)-3-((S)-1-methylaminoethyl)pyrrolidin-1-yl]-1H-quinazolinedione] | (8x) | (4x) | (2x) | (2x) | (16x) | 0.25 µg/mL (≈ 0.694 µM) | 4 µg/mL (≈ 11.1 µM) | 10.8 mg/kg | 0.5 µg/mL | 0.5 µg/mL (≈ 1.39 µM) | 0.25 µg/mL (≈ 0.694 µM) | 0.03 µg/mL (≈ 0.0832 µM) | 0.5 µg/mL (≈ 1.39 µM) | 0.25 µg/mL (≈ 0.694 µM) | 0.5 µg/mL (≈ 1.39 µM) | 8 µg/mL (≈ 22.2 µM) | 2.1 µM | – | – | – | –
4 | Cc1c(-c2csc(CN)c2)c(F)cc2c(=O)[nH]c(=O)n(C3CC3)c12.Cl [Example 22j, 7-(5-Aminomethylthiophen-3-yl)-1-cyclopropyl-6-fluoro-8-methyl-1H-quinazoline-2,4-dione Hydrochloride] | – | – | – | – | – | – | – | – | – | – | 1 µg/mL | 0.25 µg/mL | 1 µg/mL | 2 µg/mL | 1 µg/mL | 8 µg/mL | 1.4 µM | – | – | – | –
5 | Cc1c(N2CC[C@@H]([C@H](C)N)C2)c(F)cc2c(=O)[nH]c(=O)n(C3CC3)c12 [drawing 387] | – | – | – | – | – | – | – | – | – | – | – | – | – | – | – | – | – | 17 mL/min/kg | 4.1 h | 47 mL/min/kg | half-life [17]: 1.9 h; clearance [18]: 8.7 mL/min/kg; half-life [18]: 6.3 h
6 | Cc1c(N2CC[C@@H]([C@H](C)N)C2)c(F)cc2c(=O)n(N)c(=O)n(C3CC3)c12 [reference compound] | – | – | – | – | – | – | – | – | – | – | – | – | – | – | – | – | – | 24 mL/min/kg | 2.2 h | 62 mL/min/kg | half-life [17]: 2 h; clearance [18]: 21 mL/min/kg; half-life [18]: 2.4 h
